Measured values taken from patent publication US20100016256A1, “Taxane Compounds for Treating Eye Disease” (priority 2008, published 2010).
Like-named read-outs stand apart in the source and are kept apart here.

Key:
[1] = tested on: viable circulating endothelial cell precursors (CEPs); conditions: mice; for Viable CEPs per microliter of peripheral blood: after 28 days
Method: (§1) A group of 6 mice are administered various dosages of the cobalamin-paclitaxel bioconjugate prepared in accordance with Example 1 over a 28-day period. The effects on counts of viable circulating endothelial cell precursors and white blood cells are measured after 28 days.

white blood cells = conditions: mice; for White blood cells per 10^4 peripheral blood cells: after 28 days
Method: as §1

[2] = tested on: bFGF-stimulated formation of new blood vessel in the Matrigel plug; experiment: Matrigel plug perfusion in vivo assay; conditions: mice, Matrigel and bFGF; for Matrigel Plug/Plasma Fluorescence Ratio: oral gavage
Method: A Matrigel® plug perfusion in vivo assay is performed to determine the anti-angiogenic efficiacy of the cobalamin-paclitaxel bioconjugate (Cob-Pac) of Example 1. The assay uses Matrigel®, a gelatinous protein mixture secreted by mouse tumor cells (BD Biosciences, San Jose, Calif.), to duplicate tissue environments. Matrigel® is liquid at […], but when injected into the animal, forms a solid plug. If a growth vessel stimulant such as basic fibroblast growth factor (bFGF) is mixed with the Matrigel®, the bFGF stimulates the formation of new blood vessel in the plug, which can be monitored in the animal via fluorescence techniques. In the current study, Matrigel® is injected either alone or with bFGF subcutaneously into mice.

[3] = tested on: choroidal neovascularization by laser burns on the eye; conditions: rats
Method: Groups of 8 rats/dosage group or vehicle are neovascularized by laser burns on the eye. Afterwards, the eye is immediately treated with a cobalamin-paclitaxel bioconjugate prepared in accordance with Example 1 at a dose of 1.5 μg/2 μL, 5.0 μg/2 μL, and 15 μg/2 μL (indicated as B.C. in FIG. 1). The treatment regimen also includes a vehicle and Kenacort Retard® (4% triamcinolone acetonide), as a positive control. Each treatment is scored at 7, 14, and 21 days post-treatment by infusing the eye with fluorescein and scoring the leakage using angiography. A score of 0 indicates no leakage while a score of 3 indicates severe leakage. The results of the test are shown in FIG. 1 as the percentage of […] scoring 3.

[4] = tested on: blood vessel lesions of the eye; conditions: rats
Source text: In another study, flat mount evaluation of the eyes can be carried out at the end of the study because angiography may not provide a full evaluation of the effect of the drug. At the end of the study, the eyes are removed, histologically processed and all lesions can be seen (including those that can not be detected by angiography).
Groups of 8 rats/dosage group are neovascularized by laser burns, followed by immediate treatment of the eye with a cobalamin-paclitaxel bioconjugate prepared in accordance with Example 1. Dosages used are 1.5 μg/2 μL, 5.0 μg/2 μL, and 15 μg/2 μL. The treatments also include a vehicle and Kenacort Retard® (4% triamcinolone acetonide). After 21 days, the eyes are removed, histologically processed, and the lesion size scored in μm^3.

[5] = paclitaxel conjugated to cobalt atom of cobalamin
[6] = 1.5 mg/kg paclitaxel delivered as bioconjugate
[7] = 2 mg/kg paclitaxel delivered as bioconjugate
[8] = 3 mg/kg paclitaxel delivered as bioconjugate
[9] = 6 mg/kg paclitaxel delivered as bioconjugate
[10] = 30 mg/kg paclitaxel delivered as bioconjugate

CC(=O)O[C@H]1C(=O)[C@@]2(C)C([C@H](OC(=O)c3ccccc3)[C@]3(O)C[C@H](OC(=O)[C@H](OC(=O)C[NH+](C)CC[CH2][Co+][N]4/C5=C(/C)C6=N/C(=C\C7=NC(=C(/C)C8=NC(C(C)C4C(CC(N)=O)C5(C)CCC(=O)NCC(C)OP(=O)([O-])OC4C(CO)OC(n5cnc9cc(C)c(C)cc95)C4O)C(C)(CC(N)=O)C8CCC(N)=O)/C(C)(CC(N)=O)C7CCC(N)=O)C(C)(C)C6CCC(N)=O)[C@@H](NC(=O)c4ccccc4)c4ccccc4)C(C)=C1C3(C)C)[C@]1(OC(C)=O)COC1C[C@@H]2O.[Cl-] (stereo partly drawn) [cobalamin-paclitaxel bioconjugate, Cbl-(CH2)3N(CH3)CH2COO-2′-P7X]
Viable CEPs per microliter of peripheral blood [1, 6]: 0.4 per microliter of peripheral blood
Viable CEPs per microliter of peripheral blood [1, 7]: 0.25 per microliter of peripheral blood
Viable CEPs per microliter of peripheral blood [1, 8]: 0.4 per microliter of peripheral blood
Viable CEPs per microliter of peripheral blood [1, 9]: 0.9 per microliter of peripheral blood
Viable CEPs per microliter of peripheral blood [1, 10]: 1.2 per microliter of peripheral blood
Most effective dose (decrease in viable CEPs) ([1]; 28-day dose study, dose as paclitaxel): about 2 mg/kg
White blood cells per 10^4 peripheral blood cells (white blood cells; [6]): 6700 per 10^4 peripheral blood cells
White blood cells per 10^4 peripheral blood cells (white blood cells; [7]): 6700 per 10^4 peripheral blood cells
White blood cells per 10^4 peripheral blood cells (white blood cells; [8]): 7000 per 10^4 peripheral blood cells
White blood cells per 10^4 peripheral blood cells (white blood cells; [9]): 6700 per 10^4 peripheral blood cells
White blood cells per 10^4 peripheral blood cells (white blood cells; [10]): 8100 per 10^4 peripheral blood cells
Toxicity by white blood cell count (neutropenia) (white blood cells; 28 days, absence of a decrease in white blood cell count): no neutropenia
Effect on growth of new blood vessels in Matrigel plug ([2]; each dose (2, 6, 30 mg/kg), greatest effect at 2 and 6 mg/kg): inhibits the growth of new blood vessels
Matrigel Plug/Plasma Fluorescence Ratio ([2]; 2 mg/kg expressed in paclitaxel units): 0.0007
Matrigel Plug/Plasma Fluorescence Ratio ([2]; 6 mg/kg expressed in paclitaxel units): 0.0005
Matrigel Plug/Plasma Fluorescence Ratio ([2]; 30 mg/kg expressed in paclitaxel units): 0.0011
Anti-angiogenic effect by fluorescein leakage score (FIG. 1) ([3]; after 7 days, intermediate and high doses (5.0 and 15 μg/2 μL)): anti-angiogenic results
Anti-angiogenic effect by fluorescein leakage score (FIG. 1) ([3]; after 14 days, high dose (15 μg/2 μL)): anti-angiogenic benefit
Number of blood vessel lesions (FIG. 2) ([4]; 21 days, 1.5, 5.0 and 15 μg/2 μL): decrease in a concentration dependent manner
Inhibition of new blood vessel growth (lesion study) ([4]; 21 days, high and medium concentrations (15 and 5.0 μg/2 μL)): efficacious in inhibiting new blood vessel growth
water solubility [5]: over 100 mg/ml
